In US8785460B2, “Tricyclic compounds and use thereof” (Takeda Pharmaceutical Company Limited, priority 2008, dated 2014):

What was measured:
[1] = molecular target: T1, human CRF1 receptor (Homo sapiens, UniProt P34998); assay: Measurement of CRF Binding Inhibitory Rate (receptor binding experiment with 125I-CRF); settings: human CRF1 receptor expressing CHO cellular membrane fraction, 50 pM 125I-CRF, room temperature 1.5 hr, 0.05 nM to 10 μM of compound; read-out: IC50 values (CRF binding inhibition)
T1 construct: expressed in transfected cells; host or cells: CHO cells (membrane fraction)
T1 sequence (P34998 24-415): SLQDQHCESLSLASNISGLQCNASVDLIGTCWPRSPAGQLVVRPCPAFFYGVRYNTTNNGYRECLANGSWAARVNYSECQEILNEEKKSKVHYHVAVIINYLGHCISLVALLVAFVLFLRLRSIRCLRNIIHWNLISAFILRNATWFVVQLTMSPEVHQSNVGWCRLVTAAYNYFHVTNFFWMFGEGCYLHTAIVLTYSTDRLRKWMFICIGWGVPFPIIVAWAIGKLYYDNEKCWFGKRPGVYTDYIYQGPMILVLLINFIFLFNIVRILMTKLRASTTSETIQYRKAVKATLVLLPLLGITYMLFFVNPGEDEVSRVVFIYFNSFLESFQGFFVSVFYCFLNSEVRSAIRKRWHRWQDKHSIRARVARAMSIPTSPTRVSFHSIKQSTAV

Row | SMILES | melting point [°C] | IC50 [1] [µM]
1 | CCC(OC(C)=O)c1ccc(Cl)c2nc3n(c12)CCCN3c1ccc(Cl)cc1Cl (racemic) [Example 238, 1-[9-Chloro-1-(2,4-dichlorophenyl)-1,2,3,4-tetrahydropyrimido[1,2-a]benzimidazol-6-yl]propyl acetate] | 174 to 176 | < 1
2 | COC(c1ccc(Cl)c2nc3n(c12)CCCN3c1ccc(Cl)cc1Cl)C(C)C (centres unmarked) [Example 235, 9-Chloro-1-(2,4-dichlorophenyl)-6-(1-methoxy-2-methylpropyl)-1,2,3,4-tetrahydropyrimido[1,2-a]benzimidazole] | 162 to 164 | < 1
3 | Cc1cc(OC(C)C)ccc1N1CCCn2c1nc1c(Cl)ccc(C(OC(F)F)C(F)(F)F)c12 (centres unmarked) [Example 357, 9-Chloro-6-[1-(difluoromethoxy)-2,2,2-trifluoroethyl]-1-[2-methyl-4-(propan-2-yloxy)phenyl]-1,2,3,4-tetrahydropyrimido[1,2-a]benzimidazole] | 198 to 204 | < 1
4 | Clc1ccc(N2CCCn3c2nc2c(Cl)ccc(N(C4CC4)C4CC4)c23)c(Cl)c1 [Example 320, 9-Chloro-N,N-dicyclopropyl-1-(2,4-dichlorophenyl)-1,2,3,4-tetrahydropyrimido[1,2-a]benzimidazol-6-amine] | 211 to 213 | < 1
5 | CCOC(c1ccc(Cl)c2nc3n(c12)CCCN3c1ccc(Cl)cc1Cl)C(F)(F)F (centres unmarked) [Example 310, 9-Chloro-1-(2,4-dichlorophenyl)-6-(1-ethoxy-2,2,2-trifluoroethyl)-1,2,3,4-tetrahydropyrimido[1,2-a]benzimidazole] | 129 to 131 | < 1
6 | CCCC(O)(CCC)c1ccc(Cl)c2nc3n(c12)CCCN3c1c(C)cc(Cl)cc1Cl [Example 139, 4-[9-Chloro-1-(2,4-dichloro-6-methylphenyl)-1,2,3,4-tetrahydropyrimido[1,2-a]benzimidazol-6-yl]heptan-4-ol] | 176 to 178 | < 1
7 | COCC(C)(C)c1ccc(Cl)c2nc3n(c12)CCCN3c1ccc(Cl)cc1Cl [Example 150, 9-Chloro-1-(2,4-dichlorophenyl)-6-(2-methoxy-1,1-dimethylethyl)-1,2,3,4-tetrahydropyrimido[1,2-a]benzimidazole] | 188 to 190 | < 1
8 | CCOC(CC)c1ccc(Cl)c2nc3n(c12)CCCN3c1ccc(OC)nc1C (centres unmarked) [Example 269, 9-Chloro-6-(1-ethoxypropyl)-1-(6-methoxy-2-methylpyridin-3-yl)-1,2,3,4-tetrahydropyrimido[1,2-a]benzimidazole] | 174 to 176 | < 1
9 | CCC(CC)c1ccc(Cl)c2nc3n(c12)CCCCN3c1ccc(C(=O)N(C)C)cc1C [Example 50, 4-[10-Chloro-7-(1-ethylpropyl)-2,3,4,5-tetrahydro-1H-[1,3]diazepino[1,2-a]benzimidazol-1-yl]-N,N,3-trimethylbenzamide] | 113 to 114 | < 1
10 | Cc1nc(N(C)C)ccc1N1CCCn2c1nc1c(Cl)ccc(C(OC(F)F)C(F)(F)F)c12 (centres unmarked) [Example 298, 5-{9-Chloro-6-[1-(difluoromethoxy)-2,2,2-trifluoroethyl]-3,4-dihydropyrimido[1,2-a]benzimidazol-1(2H)-yl}-N,N,6-trimethylpyridin-2-amine] | 233 to 235 | < 1
11 | CCN(CC)c1cccc2nc3n(c12)CC(=O)CCN3c1ccc(Cl)cc1Cl [Example 71, 1-(2,4-Dichlorophenyl)-7-(diethylamino)-2,3-dihydro-1H-[1,3]diazepino[1,2-a]benzimidazol-4(5H)-one] | 169 to 170 | < 1
12 | CCN(CC)c1cccc2nc3n(c12)CC(N)CCN3c1ccc(Cl)cc1Cl (centres unmarked) [Example 363, 1-(2,4-Dichlorophenyl)-N^7,N^7-diethyl-2,3,4,5-tetrahydro-1H-[1,3]diazepino[1,2-a]benzimidazole-4,7-diamine] | 149 to 151 | < 1
13 | CCC(CO)c1ccc(Cl)c2nc3n(c12)CCCN3c1ccc(Cl)cc1Cl (centres unmarked) [Example 147, 2-[9-Chloro-1-(2,4-dichlorophenyl)-1,2,3,4-tetrahydropyrimido[1,2-a]benzimidazol-6-yl]butan-1-ol] | 162 to 164 | < 1
14 | COc1nc(C)c(N2CCCn3c2nc2c(Cl)ccc(C(O)(C4CC4)C4CC4)c23)c(C)n1 [Example 188, [9-Chloro-1-(2-methoxy-4,6-dimethylpyrimidin-5-yl)-1,2,3,4-tetrahydropyrimido[1,2-a]benzimidazol-6-yl](dicyclopropyl)methanol] | 220 to 221 | < 1
15 | CCO/N=C(/CC)c1ccc(Cl)c2nc3n(c12)CCCN3c1ccc(Cl)cc1Cl [Example 124, (1Z)-1-[9-Chloro-1-(2,4-dichlorophenyl)-1,2,3,4-tetrahydropyrimido[1,2-a]benzimidazol-6-yl]propan-1-one O-ethyloxime] | 140 to 141 | < 1
16 | CCC(CC)(OC)c1ccc(Cl)c2nc3n(c12)CCCN3c1ccc(Cl)cc1C(F)(F)F [Example 130, 9-Chloro-1-[4-chloro-2-(trifluoromethyl)phenyl]-6-(1-ethyl-1-methoxypropyl)-1,2,3,4-tetrahydropyrimido[1,2-a]benzimidazole] | 172 to 173 | < 1
17 | FC(F)(F)C(OC1CC1)c1ccc(Cl)c2nc3n(c12)CCCN3c1ccc(Cl)cc1Cl (centres unmarked) [Example 308, 9-Chloro-6-[1-(cyclopropyloxy)-2,2,2-trifluoroethyl]-1-(2,4-dichlorophenyl)-1,2,3,4-tetrahydropyrimido[1,2-a]benzimidazole] | 197 to 200 | < 1
18 | CCC(=O)OC(CC)c1ccc(Cl)c2nc3n(c12)CCCN3c1ccc(Cl)cc1Cl (centres unmarked) [Example 241, 1-[9-Chloro-1-(2,4-dichlorophenyl)-1,2,3,4-tetrahydropyrimido[1,2-a]benzimidazol-6-yl]propyl propanoate] | 133 to 135 | < 1
19 | CCC(CC)c1ccc(Cl)c2nc3n(c12)CC(=O)N3c1ccc(Cl)cc1Cl [Example 4, 8-Chloro-1-(2,4-dichlorophenyl)-5-(1-ethylpropyl)-1H-imidazo[1,2-a]benzimidazol-2(3H)-one] | 200 to 202 | < 1
20 | OC(c1ccc(Cl)c2nc3n(c12)CCCN3c1ccc(Cl)cc1Cl)(C1CC1)C1CC1 [Example 108, [9-Chloro-1-(2,4-dichlorophenyl)-1,2,3,4-tetrahydropyrimido[1,2-a]benzimidazol-6-yl](dicyclopropyl)methanol] | 184 to 186 | < 1
21 | COC(c1ccc(Cl)c2nc3n(c12)CCCN3c1ccc(Cl)cc1Cl)C1CC1 (centres unmarked) [Example 117, 9-Chloro-6-[cyclopropyl(methoxy)methyl]-1-(2,4-dichlorophenyl)-1,2,3,4-tetrahydropyrimido[1,2-a]benzimidazole] | 138 to 139 | < 1
22 | OC(c1ccc(Cl)c2nc3n(c12)CCCN3c1ccc(Cl)cc1C(F)(F)F)C1CC1 (centres unmarked) [Example 132, {9-Chloro-1-[4-chloro-2-(trifluoromethyl)phenyl]-1,2,3,4-tetrahydropyrimido[1,2-a]benzimidazol-6-yl}(cyclopropyl)methanol] | 224 to 225 | < 1
23 | CCN(CC)c1cccc2nc3n(c12)CC(CCO)N3c1ccc(Cl)cc1Cl (centres unmarked) [Example 74, 2-[1-(2,4-Dichlorophenyl)-5-(diethylamino)-2,3-dihydro-1H-imidazo[1,2-a]benzimidazol-2-yl]ethanol] | 222 to 223 | < 1
24 | CCC(CC)c1ccc(Cl)c2nc3n(c12)CCCCN3c1ccc(N(C)C)cc1OC(F)(F)F [Example 53, 4-[10-Chloro-7-(1-ethylpropyl)-2,3,4,5-tetrahydro-1H-[1,3]diazepino[1,2-a]benzimidazol-1-yl]-N,N-dimethyl-3-(trifluoromethoxy)aniline] | 158 to 159 | < 1
25 | CCNC(CC)c1ccc(Cl)c2nc3n(c12)CCCN3c1ccc(Cl)cc1Cl (centres unmarked) [Example 458, 1-[9-Chloro-1-(2,4-dichlorophenyl)-1,2,3,4-tetrahydropyrimido[1,2-a]benzimidazol-6-yl]-N-ethylpropan-1-amine] | 124 to 127 | < 1
26 | Cc1nc(C(C)C)nc(C)c1N1CCCn2c1nc1c(Cl)ccc(C(OC(F)F)C(F)(F)F)c12 (centres unmarked) [Example 214, 9-Chloro-6-[1-(difluoromethoxy)-2,2,2-trifluoroethyl]-1-[4,6-dimethyl-2-(1-methylethyl)pyrimidin-5-yl]-1,2,3,4-tetrahydropyrimido[1,2-a]benzimidazole] | 204 to 206 | < 1
27 | CCC(CC)c1ccc(Cl)c2nc3n(c12)CCCCN3c1ccc(SC)cc1C [Example 44, 10-Chloro-7-(1-ethylpropyl)-1-[2-methyl-4-(methylthio)phenyl]-2,3,4,5-tetrahydro-1H-[1,3]diazepino[1,2-a]benzimidazole] | 113 to 115 | < 1
28 | CCC(CC)c1ccc(Cl)c2nc3n(c12)CCCCN3c1c[n+]([O-])c(N(C)C)cc1C [Example 26, 5-[10-Chloro-7-(1-ethylpropyl)-2,3,4,5-tetrahydro-1H-[1,3]diazepino[1,2-a]benzimidazol-1-yl]-N,N,4-trimethylpyridin-2-amine 1-oxide] | 142 to 143 | < 1
